Converted amounts (≈) assume the structure as drawn.
Columns and labels:
[1] = system: HT-29; assay: Antiproliferative activity against human HT-29 cells assessed as reduction in cell viability incubated for 72 hrs by MTT assay; format: functional, cell-based; conditions: HT-29, 72 h
[2] = system: A549; assay: Antiproliferative activity against human A549 cells assessed as reduction in cell viability incubated for 72 hrs by MTT assay; format: functional, cell-based; conditions: A549, 72 h
[3] = system: MCF7; assay: Antiproliferative activity against human MCF7 cells assessed as reduction in cell viability incubated for 72 hrs by MTT assay; format: functional, cell-based; conditions: MCF7, 72 h
[4] = system: Jurkat; assay: Antiproliferative activity against human Jurkat cells assessed as reduction in cell viability incubated for 72 hrs by MTT assay; format: functional, cell-based
[5] = system: RS4-11; assay: Antiproliferative activity against human RS4-11 cells assessed as reduction in cell viability incubated for 72 hrs by MTT assay; format: functional, cell-based; conditions: RS4-11, 72 h
[6] = system: A549; assay: Antiproliferative activity against human A549 cells assessed as reduction in cell growth incubated for 24 hrs by MTT assay; format: functional, cell-based; conditions: A549, 24 h
[7] = system: MCF7; assay: Antiproliferative activity against human MCF7 cells assessed as reduction in cell growth incubated for 24 hrs by MTT assay; format: functional, cell-based; conditions: MCF7, 24 h
[8] = system: HepG2; assay: Antiproliferative activity against human HepG2 cells assessed as reduction in cell growth incubated for 24 hrs by MTT assay; format: functional, cell-based; conditions: HepG2, 24 h
[9] = Antiproliferative activity against human MCF7/MX cells assessed as reduction in cell growth incubated for 24 hrs by MTT assay; format: functional, cell-based
[10] = system: A549; assay: Cytotoxicity against human A549 cells; format: functional, cell-based
[11] = system: MCF7; assay: Cytotoxicity against human MCF7 cells assessed as reduction in cell growth incubated for 24 hrs by MTT assay; format: functional, cell-based; conditions: MCF7, 24 h
[12] = system: HL-60; assay: Cytotoxicity against human HL-60 cells assessed as reduction in cell growth incubated for 24 hrs by MTT assay; format: functional, cell-based; conditions: HL-60, 24 h
[13] = system: HCT-116; assay: Cytotoxicity against human HCT-116 cells assessed as reduction in cell viability incubated for 24 hrs by MTT assay; format: functional, cell-based; conditions: HCT-116, 24 h
[14] = Cytotoxicity against HUVEC cells; format: toxicity, cell-based; conditions: human
[15] = system: HeLa; assay: Antiproliferative activity against human HeLa cells assessed as inhibition of cell growth at 0.1 uM measured for 48 hrs by MTT assay relative to control; format: functional; conditions: values are per cent of control
[16] = system: HT-29; assay: Antiproliferative activity against human HT-29 cells assessed as inhibition of cell growth at 0.1 uM measured for 48 hrs by MTT assay relative to control; format: functional; conditions: HT-29, 48 h, values are per cent of control
[17] = system: A549; assay: Antiproliferative activity against human A549 cells assessed as inhibition of cell growth at 0.1 uM measured for 48 hrs by MTT assay relative to control; format: functional
[18] = system: HCT-15; assay: Antiproliferative activity against human HCT-15 cells assessed as inhibition of cell growth at 0.1 uM measured for 48 hrs by MTT assay relative to control; format: functional
[19] = system: MDA-MB-231; assay: Antiproliferative activity against human MDA-MB-231 cells assessed as inhibition of cell growth at 0.1 uM measured for 48 hrs by MTT assay relative to control; format: functional
[20] = system: PC-3; assay: Anticancer activity against human PC-3 cells; format: functional, cell-based
[21] = system: DU-145; assay: Anticancer activity against human DU-145 cells; format: functional, cell-based
[22] = system: HepG2; assay: Anticancer activity against human HepG2 cells; format: functional, cell-based
[23] = system: PANC-1; assay: Antiproliferative activity against human PANC-1 cells by MTT assay; format: functional, cell-based
[24] = system: HT-29; assay: Antiproliferative activity against human HT-29 cells assessed as reduction in cell growth by MTT assay; format: functional, cell-based
[25] = system: HepG2; assay: Cytotoxicity against human HepG2 cells assessed as reduction in cell growth incubated for 24 hrs by SRB assay; format: functional, cell-based; conditions: HepG2, 24 h
[26] = system: Caco-2; assay: Cytotoxicity against human Caco-2 cells assessed as reduction in cell growth incubated for 24 hrs by MTT assay; format: functional, cell-based; conditions: Caco-2, 24 h
[27] = system: HCT-116; assay: Cytotoxicity against human HCT-116 cells assessed as reduction in cell growth incubated for 24 hrs by MTT assay; format: functional, cell-based; conditions: HCT-116, 24 h
[28] = system: HeLa; assay: Cytotoxicity against human HeLa cells assessed as reduction in cell growth incubated for 24 hrs by MTT assay; format: functional, cell-based
[29] = system: HepG2; assay: Antiproliferative activity against human HepG2 cells; format: functional, cell-based
[30] = system: HCT-116; assay: Anticancer activity against human HCT-116 cells assessed as reduction in cell viability at 50 ug/ml measured for 24 hrs by MTT assay relative to control; format: functional; conditions: dose 50 µg/ml
[31] = system: MCF7; assay: Anticancer activity against human MCF7 cells assessed as reduction in cell viability at 50 ug/ml measured for 24 hrs by MTT assay relative to control; format: functional; conditions: dose 50 µg/ml
[32] = system: HFF; assay: Anticancer activity against human HFF cells assessed as reduction in cell viability at 50 ug/ml measured for 24 hrs by MTT assay relative to control; format: functional; conditions: dose 50 µg/ml
[33] = system: HCT-116; assay: Anticancer activity against human HCT-116 cells assessed as reduction in cell viability at 10 ug/ml measured for 24 hrs by MTT assay relative to control; format: functional; conditions: dose 10 µg/ml
[34] = system: MCF7; assay: Anticancer activity against human MCF7 cells assessed as reduction in cell viability at 10 ug/ml measured for 24 hrs by MTT assay relative to control; format: functional; conditions: dose 10 µg/ml
[35] = system: HFF; assay: Anticancer activity against human HFF cells assessed as reduction in cell viability at 10 ug/ml measured for 24 hrs by MTT assay relative to control; format: functional; conditions: dose 10 µg/ml
[36] = system: HCT-116; assay: Anticancer activity against human HCT-116 cells assessed as reduction in cell viability at 50 ug/ml measured for 48 hrs by MTT assay relative to control; format: functional; conditions: dose 50 µg/ml
[37] = system: MCF7; assay: Anticancer activity against human MCF7 cells assessed as reduction in cell viability at 50 ug/ml measured for 48 hrs by MTT assay relative to control; format: functional; conditions: dose 50 µg/ml
[38] = system: HFF; assay: Anticancer activity against human HFF cells assessed as reduction in cell viability at 50 ug/ml measured for 48 hrs by MTT assay relative to control; format: functional; conditions: dose 50 µg/ml
[39] = system: HCT-116; assay: Anticancer activity against human HCT-116 cells assessed as reduction in cell viability at 10 ug/ml measured for 48 hrs by MTT assay relative to control; format: functional; conditions: dose 10 µg/ml
[40] = system: MCF7; assay: Anticancer activity against human MCF7 cells assessed as reduction in cell viability at 10 ug/ml measured for 48 hrs by MTT assay relative to control; format: functional; conditions: dose 10 µg/ml
[41] = system: HFF; assay: Anticancer activity against human HFF cells assessed as reduction in cell viability at 10 ug/ml measured for 48 hrs by MTT assay relative to control; format: functional; conditions: dose 10 µg/ml
[42] = system: A549; assay: Antiproliferative activity against human A549 cells assessed as reduction in cell growth by MTT assay; format: functional, cell-based
[43] = system: MCF7; assay: Antiproliferative activity against human MCF7 cells assessed as reduction in cell growth by MTT assay; format: functional, cell-based
[44] = Inhibition of TK (unknown origin); set-up: species or system Homo sapiens
[45] = system: DLD-1; assay: Anticancer activity against human DLD-1 cells; format: functional, cell-based
[46] = system: SW480; assay: Anticancer activity against human SW480 cells; format: functional, cell-based
[47] = system: SNU-C1; assay: Anticancer activity against human SNU-C1 cells; format: functional, cell-based
[48] = system: COLO 320; assay: Anticancer activity against human COLO 320 cells; format: functional, cell-based
[49] = system: SW837; assay: Anticancer activity against human SW837 cells; format: functional, cell-based
[50] = system: RKO; assay: Anticancer activity against human RKO cells; format: functional, cell-based
[51] = system: HT-29; assay: Anticancer activity against human HT-29 cells; format: functional, cell-based
[52] = system: HCT-116; assay: Anticancer activity against human HCT-116 cells; format: functional, cell-based

Structure (SMILES): COc1ccc(/C=C\c2cc(OC)c(OC)c(OC)c2)cc1O [COMBRETASTATIN A4]
- IC50 [1]: 180 nM
- IC50 [2]: 3100 nM
- IC50 [3]: 5 nM
- IC50 [4]: 0.8 nM
- IC50 [5]: 370 nM
- IC50 [6]: 860 nM
- IC50 [7]: 430 nM
- IC50 [8]: 630 nM
- IC50 [9]: 1490 nM
- IC50 [10]: 48 nM
- IC50 [11]: 3570 nM
- IC50 [12]: 770 nM
- IC50 [13]: 2630 nM
- IC50 [14]: 119000 nM

Structure (SMILES): COc1cccc2c1C(=O)c1c(O)c3c(c(O)c1C2=O)C[C@@](O)(C(=O)CO)C[C@@H]3O[C@H]1C[C@H](N)[C@H](O)[C@H](C)O1 [DOXORUBICIN]
- viability, % of control at 0.1 µM [15]: 90%
- viability, % of control at 0.1 µM [16]: 93%
- inhibition at 0.1 µM [17]: 89%
- inhibition at 0.1 µM [18]: 94%
- inhibition at 0.1 µM [19]: 83%
- IC50 [20]: 2300 nM
- IC50 [21]: 4600 nM
- IC50 [22]: 620 nM
- IC50 [23]: 1400 nM
- IC50 [24]: 1000 nM
- IC50 [25]: 0.42 µg/mL (≈ 0.773 µM)
- IC50 [26]: 5170 nM
- IC50 [27]: 5640 nM
- IC50 [28]: 1250 nM
- IC50 [29]: 860 nM

Structure (SMILES): Nc1nc(-c2ccccc2)cn1/N=C/c1cnc2ccccc2n1
- Activity [30]: 70%
- Activity [31]: 64.7%
- Activity [32]: 35.7%
- Activity [33]: 46.6%
- Activity [34]: 41.1%
- Activity [35]: 7.1%
- Activity [36]: 66.6%
- Activity [37]: 83.3%
- Activity [38]: 37.5%
- Activity [39]: 50%
- Activity [40]: 47.3%
- Activity [41]: 33.3%

Structure (SMILES): COc1ccccc1-c1nc(-c2ccccc2)c(-c2ccccc2)n1-c1ccc(S(N)(=O)=O)cc1
- IC50 [42]: 2400 nM
- IC50 [43]: 2100 nM
- IC50 [23]: 2200 nM
- IC50 [24]: 2400 nM

Structure (SMILES): O=C(O)c1ccc(C(=O)NCn2cc(CSc3nc(-c4ccccc4)c(-c4ccccc4)n3-c3ccccc3)nn2)cc1
- IC50 [26]: 4670 nM
- IC50 [27]: 16800 nM
- IC50 [28]: 6870 nM

Structure (SMILES): COc1cccc2c1C=C(c1ncc(-c3ccc(OCc4ccccc4)cc3)[nH]1)CO2
- IC50 [44]: 4730 nM
- IC50 [45]: 370 nM
- IC50 [46]: 370 nM
- IC50 [47]: 370 nM
- IC50 [48]: 370 nM
- IC50 [49]: 370 nM
- IC50 [50]: 370 nM
- IC50 [51]: 370 nM
- IC50 [52]: 370 nM
